Test results reported in patent publication US20250325562A1, “Intravenous Ganaxolone Formulations and Methods of Use in Treating Status Epilepticus and Other Seizure Disorders” (MARINUS PHARMACEUTICALS, INC., priority 2015, published 2025).

Tested on: pilocarpine induced status epilepticus (SE)
Assay: Pilocarpine-induced status epilepticus in rats, cortical EEG power
Assay type: in vivo, Male Sprague-Dawley rats
Set-up: key to Treatment effect on EEG power vs vehicle, significance: * P < 0.05; ** P < 0.01; *** P < 0.001; **** P < 0.0001; ns = not significant
Conditions: 12 mg/kg IV
Procedure: This study was designed to determine the ability of a CAPTISOL-ganaxolone (GNX) formulation administered intravenously (IV) at 12 and 15 mg/kg to inhibit pilocarpine induced status epilepticus (SE). Allopregnanolone (Allo) (15 mg/kg; IV) was also evaluated for comparison. In this study, test drugs were administered either 15 or 60 minutes after onset of SE and compared to vehicle (30% Captisol).
Cortical EEG activity was recorded in rats before and after administration of pilocarpine to induce SE. Animals were pre-treated with LiCl to enhance and improve reliability of seizure induction and scopolamine to reduce peripheral cholinergic side effects of pilocarpine. EEG activity was recorded for 5 h after SE onset, and anticonvulsant activity was assessed by determining changes in EEG power over frequency ranges from 0.3 to 96 Hz.
Male Sprague-Dawley rats were used for the studies. Rats were surgically implanted with EEG electrodes and jugular vein catheters. The mean weight at the time of recording was 321+3 g (269-351 g).
EEG electrodes were surgically implanted in anesthetized rats. Animals were also treated with an anti-inflammatory anaelgesic (RIMADYL, (carprofen)) prior to surgery and a subcutaneous local anesthetic. Stainless steel screw electrodes chronically were implanted in the skull (0-80×¼″, Plastics-One, Roanoke, VA) such that the ends of the screws were flush with the inner skull surface. One electrode was located 3.0 mm anterior to bregma and 2 mm to the left of midline, and the second 4.0 mm posterior to bregma and 2.5 mm to the right of midline. The skull surface around the electrodes was sealed with super glue and dental acrylic, and the EEG electrode lead wires were inserted into a plastic pedestal mounted on the skull using dental acrylic. Wound edges were treated with triple antibiotic cream (bacitracin zinc, neomycin sulfate, polymyxin B sulfate; Walgreens). Following surgery, animals were administered antibiotic (ampicillin, 50 mg/kg IP at 0.4 mL/kg) and also received a chewable dose (˜10 mg) of Rimadyl following surgery. The animals were allowed to recover from EEG surgery for 1 week.
Rats were implanted with jugular-vein catheters (JVC) one week following EEG surgery. Rats were administered an anti-inflammatory/analgesic and then anesthetized and placed in a supine position. An incision was made in the skin on the right ventrolateral aspect of the neck to expose the external jugular vein which was then dissected free of surrounding fascia. A ligature was tied around the vein anteriorly to occlude blood flow returning to the heart. A second ligature was loosely tied around the vein posteriorly to create tension on the vessel during venotomy and catheter insertion. After incising the vein, a PE catheter (3Fr) was inserted into the vein and advanced approximately 30 mm towards the heart, positioning the tip at the junction of the precava and right atrium. After confirming patency of the catheter by blood withdrawal, the posterior ligature was tied off, and the catheter flushed with a “heparin-lock” solution (5 units heparin/ml saline) and plugged with a sterilized stainless steel pin. The catheter was then exteriorized by tunneling through the subcutaneous tissue to exit posterior to the head between the shoulder blades. Lastly, after suturing the catheter to the skin, all wounds were closed using sutures or wound clips. Immediately following surgery, the animals were awakened to assess catheter patency. Animals also received a chewable dose (˜10 mg) of Rimadyl following surgery to minimize pain and inflammation.
Animals were allowed a 1-week recovery time following JVC surgery. Jugular vein catheters were flushed daily with a 0.1 mL of heparin solution (5 units/mL) to maintain patency. On the day of surgery, the flushing solution contained ampicillin sulbactam (50 mg/kg). […]

## CC(=O)[C@H]1CC[C@H]2[C@@H]3CC[C@H]4C[C@](C)(O)CC[C@]4(C)[C@H]3CC[C@]12C [Ganaxolone, 3α-hydroxy, 3β-methyl-5α-pregnan-20-one]
15 min post SE onset, 0-5 Hz, 0-15 min. post drug
  Treatment effect on EEG power vs vehicle, significance: **** (**** P < 0.0001)
15 min post SE onset, 0-5 Hz, 1-2 hrs post drug
  Treatment effect on EEG power vs vehicle, significance: **** (**** P < 0.0001)
15 min post SE onset, 0-5 Hz, 2-3 hrs post drug
  Treatment effect on EEG power vs vehicle, significance: *** (*** P < 0.001)
15 min post SE onset, 0-5 Hz, 3-5 hrs post drug
  Treatment effect on EEG power vs vehicle, significance: ** (** P < 0.01)
15 min post SE onset, 0-5 Hz, 15-30 min post drug
  Treatment effect on EEG power vs vehicle, significance: **** (**** P < 0.0001)
15 min post SE onset, 0-5 Hz, 30-60 min post drug
  Treatment effect on EEG power vs vehicle, significance: **** (**** P < 0.0001)
15 min post SE onset, 5-10 Hz, 0-15 min. post drug
  Treatment effect on EEG power vs vehicle, significance: **** (**** P < 0.0001)
15 min post SE onset, 5-10 Hz, 1-2 hrs post drug
  Treatment effect on EEG power vs vehicle, significance: ** (** P < 0.01)
15 min post SE onset, 5-10 Hz, 2-3 hrs post drug
  Treatment effect on EEG power vs vehicle, significance: * (* P < 0.05)
15 min post SE onset, 5-10 Hz, 3-5 hrs post drug
  Treatment effect on EEG power vs vehicle, significance: ns
15 min post SE onset, 5-10 Hz, 15-30 min post drug
  Treatment effect on EEG power vs vehicle, significance: **** (**** P < 0.0001)
15 min post SE onset, 5-10 Hz, 30-60 min post drug
  Treatment effect on EEG power vs vehicle, significance: *** (*** P < 0.001)
15 min post SE onset, 10-30 Hz, 0-15 min. post drug
  Treatment effect on EEG power vs vehicle, significance: *** (*** P < 0.001)
15 min post SE onset, 10-30 Hz, 1-2 hrs post drug
  Treatment effect on EEG power vs vehicle, significance: * (* P < 0.05)
15 min post SE onset, 10-30 Hz, 2-3 hrs post drug
  Treatment effect on EEG power vs vehicle, significance: ns
15 min post SE onset, 10-30 Hz, 3-5 hrs post drug
  Treatment effect on EEG power vs vehicle, significance: ns
15 min post SE onset, 10-30 Hz, 15-30 min post drug
  Treatment effect on EEG power vs vehicle, significance: **** (**** P < 0.0001)
15 min post SE onset, 10-30 Hz, 30-60 min post drug
  Treatment effect on EEG power vs vehicle, significance: ** (** P < 0.01)
15 min post SE onset, 30-50 Hz, 0-15 min. post drug
  Treatment effect on EEG power vs vehicle, significance: *** (*** P < 0.001)
15 min post SE onset, 30-50 Hz, 1-2 hrs post drug
  Treatment effect on EEG power vs vehicle, significance: * (* P < 0.05)
15 min post SE onset, 30-50 Hz, 2-3 hrs post drug
  Treatment effect on EEG power vs vehicle, significance: ns
15 min post SE onset, 30-50 Hz, 3-5 hrs post drug
  Treatment effect on EEG power vs vehicle, significance: ns
15 min post SE onset, 30-50 Hz, 15-30 min post drug
  Treatment effect on EEG power vs vehicle, significance: *** (*** P < 0.001)
15 min post SE onset, 30-50 Hz, 30-60 min post drug
  Treatment effect on EEG power vs vehicle, significance: ** (** P < 0.01)
15 min post SE onset, 50-70 Hz, 0-15 min. post drug
  Treatment effect on EEG power vs vehicle, significance: ** (** P < 0.01)
15 min post SE onset, 50-70 Hz, 1-2 hrs post drug
  Treatment effect on EEG power vs vehicle, significance: ** (** P < 0.01)
15 min post SE onset, 50-70 Hz, 2-3 hrs post drug
  Treatment effect on EEG power vs vehicle, significance: ns
15 min post SE onset, 50-70 Hz, 3-5 hrs post drug
  Treatment effect on EEG power vs vehicle, significance: ns
15 min post SE onset, 50-70 Hz, 15-30 min post drug
  Treatment effect on EEG power vs vehicle, significance: ** (** P < 0.01)
15 min post SE onset, 50-70 Hz, 30-60 min post drug
  Treatment effect on EEG power vs vehicle, significance: * (* P < 0.05)
15 min post SE onset, 70-96 Hz, 0-15 min. post drug
  Treatment effect on EEG power vs vehicle, significance: ** (** P < 0.01)
15 min post SE onset, 70-96 Hz, 1-2 hrs post drug
  Treatment effect on EEG power vs vehicle, significance: ** (** P < 0.01)
15 min post SE onset, 70-96 Hz, 2-3 hrs post drug
  Treatment effect on EEG power vs vehicle, significance: ns
15 min post SE onset, 70-96 Hz, 3-5 hrs post drug
  Treatment effect on EEG power vs vehicle, significance: ns
15 min post SE onset, 70-96 Hz, 15-30 min post drug
  Treatment effect on EEG power vs vehicle, significance: ** (** P < 0.01)
15 min post SE onset, 70-96 Hz, 30-60 min post drug
  Treatment effect on EEG power vs vehicle, significance: * (* P < 0.05)
60 min post SE onset, 0-5 Hz, 0-15 min. post drug
  Treatment effect on EEG power vs vehicle, significance: *** (*** P < 0.001)
60 min post SE onset, 0-5 Hz, 1-2 hrs post drug
  Treatment effect on EEG power vs vehicle, significance: **** (**** P < 0.0001)
60 min post SE onset, 0-5 Hz, 2-3 hrs post drug
  Treatment effect on EEG power vs vehicle, significance: *** (*** P < 0.001)
60 min post SE onset, 0-5 Hz, 3-5 hrs post drug
  Treatment effect on EEG power vs vehicle, significance: ** (** P < 0.01)
60 min post SE onset, 0-5 Hz, 15-30 min post drug
  Treatment effect on EEG power vs vehicle, significance: **** (**** P < 0.0001)
60 min post SE onset, 0-5 Hz, 30-60 min post drug
  Treatment effect on EEG power vs vehicle, significance: **** (**** P < 0.0001)
60 min post SE onset, 5-10 Hz, 0-15 min. post drug
  Treatment effect on EEG power vs vehicle, significance: **** (**** P < 0.0001)
60 min post SE onset, 5-10 Hz, 1-2 hrs post drug
  Treatment effect on EEG power vs vehicle, significance: *** (*** P < 0.001)
60 min post SE onset, 5-10 Hz, 2-3 hrs post drug
  Treatment effect on EEG power vs vehicle, significance: ** (** P < 0.01)
60 min post SE onset, 5-10 Hz, 3-5 hrs post drug
  Treatment effect on EEG power vs vehicle, significance: ns
60 min post SE onset, 5-10 Hz, 15-30 min post drug
  Treatment effect on EEG power vs vehicle, significance: **** (**** P < 0.0001)
60 min post SE onset, 5-10 Hz, 30-60 min post drug
  Treatment effect on EEG power vs vehicle, significance: **** (**** P < 0.0001)
60 min post SE onset, 10-30 Hz, 0-15 min. post drug
  Treatment effect on EEG power vs vehicle, significance: * (* P < 0.05)
60 min post SE onset, 10-30 Hz, 1-2 hrs post drug
  Treatment effect on EEG power vs vehicle, significance: ** (** P < 0.01)
60 min post SE onset, 10-30 Hz, 2-3 hrs post drug
  Treatment effect on EEG power vs vehicle, significance: * (* P < 0.05)
